We go through 26 molecules from patent EP4559911A1, “NOVEL HETEROCYCLIC COMPOUND AND PHARMACEUTICAL COMPOSITION FOR INHIBITING AUTOTAXIN COMPRISING THE SAME” (Nextgen Bioscience Co., Ltd., priority 2022, dated 2024).

For the assay, the target named is human Autotaxin protein (Homo sapiens, UniProt Q13822). Briefly: Evaluation of the inhibitory activity against human Autotaxin protein (18:1 LysoPC substrate, choline assay kit, absorbance at 570 nm). The following applies: compound at 500nM; 2 hours at 37 °C; % inhibition = (1 - absorbance test group / absorbance control group) X 100. In kind it is biochemical. On the procedure: Solutions of each compound synthesized (80 uM, 100% dimethyl sulfoxide) were sequentially diluted 5-fold with dimethyl sulfoxide to prepare 6 concentrations. Each concentration of the compound was diluted 2-fold with 1x test buffer (50 mM Tris-Cl (pH 8.0), 5 mM KCl, 1 mM CaCl2, 1 mM MgCl2, 140 mM NaCl, deionized water, 1 mg/mL BSA), and 1 uL (1.25% dimethyl sulfoxide) of this diluted mixture was dispensed into each well of a 96-well clear round-bottom plate. 9 uL of 1x test buffer was added, and 20 uL of 240 nM human autotaxin protein (buffer: 50 mM Tris-HCl, pH 8.0, with 150 mM sodium chloride and 20% glycerol) was added. 10 uL of sonicated 360 uM 18:1 LysoPC (diluted with 1x assay buffer) was added. The reaction was performed for 2 hours in a shaking incubator at 37 °C, and a secondary reaction mixture (choline assay kit, KA1662) (65 uL of 1x assay buffer: 1 uL of choline oxidase: 1 uL of dye probe) was prepared. 60 uL of the secondary reaction mixture was added to the plate where the reaction was performed, and incubated for 30 minutes in a shaker. The absorbance value was measured at a wavelength of 570 nm using a SpectraMax iD3 microplate reader. The percentage inhibition activity value (% inhibition) was calculated by the formula: (1 - absorbance value test group / absorbance value control group) X 100.
For `c1ccc2c(c1)CC(Nc1ncc(-c3nnc(N4CC(c5c[nH]nn5)C4)o3)cn1)C2` [Example 42, 5-(5-(3-(1H-1,2,3-triazol-4-yl)azetidin-1-yl)-1,3,4-oxadiazol-2-yl)-N-(2,3-dihydro-1H-inden-2-yl)pyrimidin-2-amine], 0.5 µM produced 97.8% inhibition.

In the case of `Fc1cc2c(cc1F)CC(Nc1cnc(-c3nnc(N4CC(c5c[nH]nn5)C4)o3)cn1)C2` [Example 60, 5-(5-(3-(1H-1,2,3-triazol-4-yl)azetidin-1-yl)-1,3,4-oxadiazol-2-yl)-N-(5,6-difluoro-2,3-dihydro-1H-inden-2-yl)pyrazin-2-amine], 0.5 µM produced 1% inhibition.

Take `CC1(c2c[nH]nn2)CN(c2nnc(-c3cnc(NC4Cc5cc(F)c(F)cc5C4)nc3)o2)C1` [Example 51, N-(5,6-difluoro-2,3-dihydro-1H-inden-2-yl)-5-(5-(3-methyl-3-(1H-1,2,3-triazol-4-yl)azetidin-1-yl)-1,3,4-oxadiazol-2-yl)pyrimidin-2-amine]: the inhibition (commonly the relative decrease from the control value, in per cent) at 0.5 µM was 91.8%.

Consider `Fc1cc2c(cc1F)CC(Nc1ncc(-c3nnc(N4CC(N5CCOCC5)C4)o3)cn1)C2` [Example 81, N-(5,6-difluoro-2,3-dihydro-1H-inden-2-yl)-5-(5-(3-morpholinoazetidin-1-yl)-1,3,4-oxadiazol-2-yl)pyrimidin-2-amine], for which 0.5 µM produced 7% inhibition.

Consider `CS(=O)(=O)OC1CCN(c2nnc(-c3cnc(NC4Cc5cc(F)c(F)cc5C4)nc3)o2)C1` (centres unmarked) [Example 27, 1-(5-(2-((5,6-difluoro-2,3-dihydro-1H-inden-2-yl)amino)pyrimidin-5-yl)-1,3,4-oxadiazol-2-yl)pyrrolidin-3-yl methanesulfonate], for which 0.5 µM produced 12.1% inhibition.

Take `Fc1cc2c(cc1F)CC(Nc1ncc(-c3cc(N4CC(c5c[nH]nn5)C4)no3)cn1)C2` [Example 45, 5-(3-(3-(1H-1,2,3-triazol-4-yl)azetidin-1-yl)isoxazol-5-yl)-N-(5,6-difluoro-2,3-dihydro-1H-inden-2-yl)pyrimidin-2-amine]: 0.5 µM produced 43% inhibition.

As for `O=c1[nH]nc(C2CN(c3nnc(-c4cnc(NC5Cc6cc(F)c(F)cc6C5)nc4)o3)C2)o1` [Example 66, 5-(1-(5-(2-((5,6-difluoro-2,3-dihydro-1H-inden-2-yl)amino)pyrimidin-5-yl)-1,3,4-oxadiazol-2-yl)azetidin-3-yl)-1,3,4-oxadiazol-2(3H)-one], the inhibition at 0.5 µM came out at 35.8%.

Consider `CC(C)(C)C(=O)OCn1cc(C2CN(c3nnc(-c4cnc(NC5Cc6ccncc6C5)nc4)o3)C2)nn1` (centres unmarked) [Example 84, (4-(1-(5-(2-((6,7-dihydro-5H-cyclopenta[c]pyridin-6-yl)amino)pyrimidin-5-yl)-1,3,4-oxadiazol-2-yl)azetidin-3-yl)-1H-1,2,3-triazol-1-yl)methyl pivalate], for which the inhibition at 0.5 µM is 1.1%.

Turning to `Clc1cc(Cl)cc(CCNc2ncc(-c3nnc(N4CCC(c5c[nH]nn5)C4)o3)cn2)c1` (centres unmarked) [Example 11, 5-(5-(3-(1H-1,2,3-triazol-4-yl)pyrrolidin-1-yl)-1,3,4-oxadiazol-2-yl)-N-(3,5-dichlorophenethyl)pyrimidin-2-amine], the inhibition at 0.5 µM is 41.6%.

Consider `Fc1cc2c(cc1F)CC(Nc1ncc(-c3nnc(N4CCC(n5cncn5)C4)o3)cn1)C2` (centres unmarked) [Example 28, 5-(5-(3-(1H-1,2,4-triazol-1-yl)pyrrolidin-1-yl)-1,3,4-oxadiazol-2-yl)-N-(5,6-difluoro-2,3-dihydro-1H-inden-2-yl)pyrimidin-2-amine], for which at 0.5 µM the inhibition was 10.9%.

In the case of `Clc1ccc2c(c1)CC(Nc1ncc(-c3nnc(N4CC(c5c[nH]nn5)C4)o3)cn1)C2` (centres unmarked) [Example 91, 5-(5-(3-(1H-1,2,3-triazol-4-yl)azetidin-1-yl)-1,3,4-oxadiazol-2-yl)-N-(5-chloro-2,3-dihydro-1H-inden-2-yl)pyrimidin-2-amine], the inhibition at 0.5 µM amounted to 97.1%.

In the case of `c1cc2c(cc1CNc1ncc(-c3nnc(N4CCC(c5c[nH]nn5)C4)o3)cn1)OCO2` (centres unmarked) [Example 6, 5-(5-(3-(1H-1,2,3-triazol-4-yl)pyrrolidin-1-yl)-1,3,4-oxadiazol-2-yl)-N-(benzo[d][1,3]dioxol-5-ylmethyl)pyrimidin-2-amine], 0.5 µM produced 30.4% inhibition.

`COC(=O)CC1CN(c2nnc(-c3cnc(NC4Cc5cc(F)c(F)cc5C4)nc3)o2)C1` [Example 52, Methyl 2-(1-(5-(2-((5,6-difluoro-2,3-dihydro-1H-inden-2-yl)amino)pyrimidin-5-yl)-1,3,4-oxadiazol-2-yl)azetidin-3-yl)acetate]: the inhibition at 0.5 µM is 21.9%.

`CC(C)(C)C(=O)OCn1cc(C2CN(c3nnc(-c4cnc(NC5Cc6ccc(Br)cc6C5)nc4)o3)C2)nn1` (centres unmarked) [Example 62, (4-(1-(5-(2-((5-bromo-2,3-dihydro-1H-inden-2-yl)amino)pyrimidin-5-yl)-1,3,4-oxadiazol-2-yl)azetidin-3-yl)-1H-1,2,3-triazol-1-yl)methyl pivalate]: the inhibition at 0.5 µM came out at 1%.

In turn, `COc1ccc2c(c1)CC(Nc1ncc(-c3nnc(N4CCC(c5c[nH]nn5)C4)o3)cn1)C2` (centres unmarked) [Example 13, 5-(5-(3-(1H-1,2,3-triazol-4-yl)pyrrolidin-1-yl)-1,3,4-oxadiazol-2-yl)-N-(5-methoxy-2,3-dihydro-1H-inden-2-yl)pyrimidin-2-amine] had an inhibition at 0.5 µM of 96.8%.

The molecule `CC1(c2c[nH]nn2)CN(c2nnc(-c3cnc(NC4Cc5ccccc5C4)nc3)o2)C1` [Example 69, N-(2,3-dihydro-1H-inden-2-yl)-5-(5-(3-methyl-3-(1H-1,2,3-triazol-4-yl)azetidin-1-yl)-1,3,4-oxadiazol-2-yl)pyrimidin-2-amine] came in with an inhibition at 0.5 µM of 95.4%.

As to `COC(=O)CC1CCN(c2nnc(-c3cnc(NC4Cc5cc(F)c(F)cc5C4)nc3)o2)C1` (centres unmarked) [Example 24, methyl 2-(1-(5-(2-((5,6-difluoro-2,3-dihydro-1H-inden-2-yl)amino)pyrimidin-5-yl)-1,3,4-oxadiazol-2-yl)pyrrolidin-3-yl)acetate], at 0.5 µM the inhibition was 1%.

As to `OC1CN(c2nnc(-c3cnc(NC4Cc5cc(F)c(F)cc5C4)nc3)o2)C1` [Example 49, 1-(5-(2-((5,6-difluoro-2,3-dihydro-1H-inden-2-yl)amino)pyrimidin-5-yl)-1,3,4-oxadiazol-2-yl)azetidin-3-ol], testing at 0.5 µM gave an inhibition of 11%.

On to `Cc1nc(NC2Cc3cc(F)c(F)cc3C2)ncc1-c1nnc(N2CC(c3c[nH]nn3)C2)o1` [Example 67, 5-(5-(3-(1H-1,2,3-triazol-4-yl)azetidin-1-yl)-1,3,4-oxadiazol-2-yl)-N-(5,6-difluoro-2,3-dihydro-1H-inden-2-yl)-4-methylpyrimidin-2-amine], for which at 0.5 µM the inhibition was 74.7%.

As to `c1cnc2c(c1)CC(Nc1ncc(-c3nnc(N4CC(c5c[nH]nn5)C4)o3)cn1)C2` (centres unmarked) [Example 77, N-(5-(5-(3-(1H-1,2,3-triazol-4-yl)azetidin-1-yl)-1,3,4-oxadiazol-2-yl)pyrimidin-2-yl)-6,7-dihydro-5H-cyclopenta[b]pyridin-6-amine], the inhibition at 0.5 µM was determined as 43.7%.

For `Cn1nncc1C1CN(c2nnc(-c3cnc(NC4Cc5cc(F)c(F)cc5C4)nc3)o2)C1` [Example 41, N-(5,6-difluoro-2,3-dihydro-1H-inden-2-yl)-5-(5-(3-(1-methyl-1H-1,2,3-triazol-5-yl)azetidin-1-yl)-1,3,4-oxadiazol-2-yl)pyrimidin-2-amine], at 0.5 µM the inhibition was 70.6%.

The molecule `CC1(c2c[nH]nn2)CCN(c2nnc(-c3cnc(NC4Cc5ccccc5C4)nc3)o2)C1` (centres unmarked) [Example 31, N-(2,3-dihydro-1H-inden-2-yl)-5-(5-(3-methyl-3-(1H-1,2,3-triazol-4-yl)pyrrolidin-1-yl)-1,3,4-oxadiazol-2-yl)pyrimidin-2-amine] registered an inhibition at 0.5 µM of 96.8%.

Regarding `NS(=O)(=O)C1CN(c2nnc(-c3cnc(NC4Cc5cc(F)c(F)cc5C4)nc3)o2)C1` [Example 46, 1-(5-(2-((5,6-difluoro-2,3-dihydro-1H-inden-2-yl)amino)pyrimidin-5-yl)-1,3,4-oxadiazol-2-yl)azetidine-3-sulfonamide], the inhibition at 0.5 µM came to 27.1%.

`Fc1cc2c(cc1F)CC(Nc1ncc(-c3nnc(N4CC(c5nnc(C(F)F)o5)C4)o3)cn1)C2` [Example 61, N-(5,6-difluoro-2,3-dihydro-1H-inden-2-yl)-5-(5-(3-(5-(difluoromethyl)-1,3,4-oxadiazol-2-yl)azetidin-1-yl)-1,3,4-oxadiazol-2-yl)pyrimidin-2-amine]: the inhibition at 0.5 µM turned out to be 1%.

The molecule `c1cnc2c(n1)CC(Nc1ncc(-c3nnc(N4CC(c5c[nH]nn5)C4)o3)cn1)C2` [Example 74, N-(5-(5-(3-(1H-1,2,3-triazol-4-yl)azetidin-1-yl)-1,3,4-oxadiazol-2-yl)pyrimidin-2-yl)-6,7-dihydro-5H-cyclopenta[b]pyrazin-6-amine] gave an inhibition at 0.5 µM of 7.1%.

Take `FC1(c2c[nH]nn2)CN(c2nnc(-c3cnc(NC4Cc5ccccc5C4)nc3)o2)C1` [Example 83, N-(2,3-dihydro-1H-inden-2-yl)-5-(5-(3-fluoro-3-(1H-1,2,3-triazol-4-yl)azetidin-1-yl)-1,3,4-oxadiazol-2-yl)pyrimidin-2-amine]: the inhibition at 0.5 µM turned out to be 81.6%.
